According to patent publication US20080287662A1, “Balanites Aegyptiaca Saponins and Uses Thereof” (priority 2005, published 2008):
Marks after values point to notes of the source that are not given here.

Legend:
[1] = tested on: Aedes aegypti mosquito larvae; assay: Effect of purified main mesocarp saponin on Aedes aegypti larvae, pupa and adults; type: in vivo
Description: Eggs of laboratory-grown Aedes aegypti were hatched in tap water in a growth chamber with a 16-hour photoperiod, at a temperature of 25±3° C. Twenty to twenty five larvae at the late 3rd and early 4th instars were placed into 150-ml disposable plastic cups containing 100 ml of tap water together with water-soluble saponin solutions of various concentrations. During the experiments, treated and control (0 mg/L saponin) cups were examined after 2, 4, 9 and 11 days and number of alive larvae or adults were counted. The data are presented in percentage together with an analysis of variance using the Tukey-Kramer HSD test (SAS's JMP software) at the 0.01 level of significance.

[2] = tested on: Pythium aphanidermatum; assay: Mycelial colony growth inhibition in vitro; type: cell-based
Description: Cultures of Pythium aphanindermatum were isolated from plant species showing Pythium symptoms. The isolate was placed in potato dextrose agar (PDA, Difco, Detroit, Mich., USA) supplemented with 100 ppm of streptomycin and incubated in the dark at 27° C. for 2 days. The colony of Pythium was identified visually and microscopically and sub-cultured on PDA without antibiotics as described by Tsror et al (2001).
For fungal growth inhibition measurements five concentrations of Balanites mesocarp saponin (ME) preparation (0.1, 0.5, 1.0, 2.0 and 4.0% w/v) and two concentrations of Metalaxyl-10 (a systemic benzenoid fungicide, 1 and 5 ppm as positive control) were added in separate Erlenmeyer flasks containing sterilized (121° C., 2 atm, 20 min) PDA, and mixed properly. Samples of PDA containing Balanites mesocarp saponin preparation and Metalaxyl-10 (15 ml) were poured into sterilized petri dishes separately and allowed to solidify. 5 mm in diameter agar plug of the fungal isolate was placed in the center of each plate. The plates were incubated at 27° C. (10 plates per treatment). The colony diameter of the mycelial growth was measured after 24 and 48 h and the inhibitory activity of each treatment was expressed as the growth inhibition percentage as compared to the negative control (0% ME preparation) using the formula: Growth inhibition percentage=[100-(Treatment growth/Control growth*100)].

[3] = tested on: Escherichia coli; assay: Bacterial growth in LB (OD660); type: cell-based
Description: Standard Luria Broth solution (LB) was prepared using […] yeast extract, 10 mg NaCl and 10 mg Typtone per ml of DDW. A small portion of the Escherichia coil inoculum (LMC1492 strain, obtained from the Life Sciences Department of the Ben-Gurion University) was added to the LB solution in a sterilized Erlenmeyer and inoculated in a rotary water bath incubator at 250 rpm and 37° C. The tested extracts were first prepared in 5% in LB solution and used as stock solution for further dilution. Lower concentrations were obtained by mixing this stock solution in the required ratios with plain LB solution. The extract containing solution of the required concentrations were prepared in 10/140 mm glass test tubes in volumes of 1.8 ml each and incubated in a rotary water bath incubator (Gyvotory-676, New Brunswick Scientific Co. Inc, NY) at 250 rpm and 37° C.

[4] = tested on: mung bean cuttings; assay: Rooting of mung bean cuttings; type: in vivo; settings: IBA 100 μM, saponins 100 ppm; rooting assessed seven days
Description: This effect was increased as saponin concentration increased up to 500 ppm for Balanites mesocarp extract saponins and 50 ppm for Balanites root extract saponins, and up to 100 ppm for Quillaja saponaria bark extract saponins. The treatment solution was replaced by fresh water after 24 h and the rooting was assessed 10 days after the initiation of the experiment. The stimulating effect of saponins on root formation may be related to their hormone-like effect, but their effect on root elongation seems to be mainly due to their influence on increase of water uptake. The enhancing effect of saponins on rooting of mung bean cuttings when applied together with the synthetic plant hormone indole-3-butyric acid (IBA) is shown in Table 17. […] Similar, but weaker, enhancing effect was found with Quillaja bark extract saponins (the treatment solution was replaced by fresh water after 24 h and the rooting was assessed seven days after the initiation of the experiment).

[5] = tested on: mung bean seeds and seedlings; assay: Mung bean germination, growth and development under saline water irrigation; type: in vivo; set-up: key to Germination (4 days): ++++ more advanced seedling; typical germination using tap water +++ (1 cm height with two leave starting to be expended); ++ less advanced seedling; + not germinated seedling; key to Foliage (14 days): aaaa more elongated seedlings; Typical mung bean foliage development 14 days after germination using tap water aaa (~10 cm seedling with fully expanded two leave and abscised cotyledons); aa less elongated seedlings; a dwarf seedling; key to Root: bbbb more elongated and branched roots; Typical mung bean root system 14 days after germination using tap water bbb (~6 cm well branched roots); bb less elongated roots; b short and necrotic root system; settings: for Root: 14 days after germination
Description: Addition of Balanites mesocarp extract (ME) saponins in moderate concentration of […] to the irrigation saline water stimulated the germination and development of mung bean seeds in comparison to control. It also stimulated the germination of the seeds in comparison to control and to saline treatments. The effect on the foliage and the roots of the treated mung bean seedlings corresponded to the effect on the germination. These effects are directly related to the effect of Balanites mesocarp saponin treatment on water uptake by the mung bean seeds and germinated seedlings.

[6] = Vitamin C delivery through isolated rat skin; type: in vitro ADME; settings: 25° C., 60% relative humidity
Description: The effect of Balanites mesocarp saponin preparation on delivery of vitamin C through the skin was tested using isolated rat skin system. 100 μl of saponin nanovesicles containing encapsulated vitamin C (2 mg) were prepared from saponin extracted from Balanites mesocarp by the procedure A described in Example 5(i) above. 15 μl of the preparation were loaded on an isolated rat skin in three replicates. The treatments were applied in a controlled environment (25° C. and 60% relative humidity) and incubated for 30 or 60 min. The solution delivered through the isolated skin was tested using an HPLC system for detecting the level of vitamin C corresponding to a standard peak of vitamin C.

[7] = Penetration rate of 14C-labeled 2,4-D across isolated leaf cuticle membranes with saponin adjuvant; set-up: species or system Citrus grandis; settings: 1% (w/v) adjuvant, 30° C. and 30% RH

Compound: CC(CCC1(O)O[C@H]2C[C@H]3[C@@H]4CC=C5C[C@@H](O[C@@H]6O[C@H](CO)[C@@H](O[C@@H]7O[C@H](CO)[C@@H](O)[C@H](O)[C@H]7O)[C@H](O)[C@H]6O[C@@H]6O[C@@H](C)[C@H](O)[C@@H](O)[C@H]6O)CC[C@]5(C)[C@H]4CC[C@]3(C)[C@H]2[C@@H]1C)CO[C@@H]1O[C@H](CO)[C@@H](O)[C@H](O)[C@H]1O (stereo partly drawn) [26-(O-β-D-glucopyranosyl)-3β,22,26-trihydroxyfurost-5-ene 3-O-β-D-glucopyranosyl-(1→4)-[α-L-rhamnopyranosyl-(1→2)]-β-D-glucopyranoside]
- % adults ([1]; 10 ppm, day 0): 0%
- % dead larvae ([1]; 10 ppm, day 0): 0%
- % pupa ([1]; 10 ppm, day 0): 0%
- % adults ([1]; 10 ppm, day 2): 0%
- % dead larvae ([1]; 10 ppm, day 2): 0 d %
- % pupa ([1]; 10 ppm, day 2): 0%
- % adults ([1]; 10 ppm, day 4): 0%
- % dead larvae ([1]; 10 ppm, day 4): 0 d %
- % pupa ([1]; 10 ppm, day 4): 41 ab %
- % adults ([1]; 10 ppm, day 9): 41 bc %
- % dead larvae ([1]; 10 ppm, day 9): 0 d %
- % pupa ([1]; 10 ppm, day 9): 0 b %
- % adults ([1]; 10 ppm, day 11): 87 a %
- % dead larvae ([1]; 10 ppm, day 11): 1.25 d %
- % pupa ([1]; 10 ppm, day 11): 0%
- % adults ([1]; 100 ppm, day 0): 0%
- % dead larvae ([1]; 100 ppm, day 0): 0%
- % pupa ([1]; 100 ppm, day 0): 0%
- % adults ([1]; 100 ppm, day 2): 0%
- % dead larvae ([1]; 100 ppm, day 2): 0 d %
- % pupa ([1]; 100 ppm, day 2): 0%
- % adults ([1]; 100 ppm, day 4): 0%
- % dead larvae ([1]; 100 ppm, day 4): 0 d %
- % pupa ([1]; 100 ppm, day 4): 45 a %
- % adults ([1]; 100 ppm, day 9): 70 a %
- % dead larvae ([1]; 100 ppm, day 9): 6.25 d %
- % pupa ([1]; 100 ppm, day 9): 0 b %
- % adults ([1]; 100 ppm, day 11): 85 a %
- % dead larvae ([1]; 100 ppm, day 11): 6.25 cd %
- % pupa ([1]; 100 ppm, day 11): 0%
- % adults ([1]; 300 ppm, day 0): 0%
- % dead larvae ([1]; 300 ppm, day 0): 0%
- % pupa ([1]; 300 ppm, day 0): 0%
- % adults ([1]; 300 ppm, day 2): 0%
- % dead larvae ([1]; 300 ppm, day 2): 50 c %
- % pupa ([1]; 300 ppm, day 2): 0%
- % adults ([1]; 300 ppm, day 4): 0%
- % dead larvae ([1]; 300 ppm, day 4): 50 c %
- % pupa ([1]; 300 ppm, day 4): 15 bc %
- % adults ([1]; 300 ppm, day 9): 15 d %
- % dead larvae ([1]; 300 ppm, day 9): 50 c %
- % pupa ([1]; 300 ppm, day 9): 33.25 a %
- % adults ([1]; 300 ppm, day 11): 50 b %
- % dead larvae ([1]; 300 ppm, day 11): 48.75 bc %
- % pupa ([1]; 300 ppm, day 11): 0%
- % adults ([1]; 500 ppm, day 0): 0%
- % dead larvae ([1]; 500 ppm, day 0): 0%
- % pupa ([1]; 500 ppm, day 0): 0%
- % adults ([1]; 500 ppm, day 2): 0%
- % dead larvae ([1]; 500 ppm, day 2): 77.5 b %
- % pupa ([1]; 500 ppm, day 2): 0%
- % adults ([1]; 500 ppm, day 4): 0%
- % dead larvae ([1]; 500 ppm, day 4): 78.75 b %
- % pupa ([1]; 500 ppm, day 4): 9.5 c %
- % adults ([1]; 500 ppm, day 9): 20 cd %
- % dead larvae ([1]; 500 ppm, day 9): 78.25 b %
- % pupa ([1]; 500 ppm, day 9): 1.75 b %
- % adults ([1]; 500 ppm, day 11): 22.5 c %
- % dead larvae ([1]; 500 ppm, day 11): 78.25 ab %
- % pupa ([1]; 500 ppm, day 11): 0%
- % adults ([1]; 800 ppm, day 0): 0%
- % dead larvae ([1]; 800 ppm, day 0): 0%
- % pupa ([1]; 800 ppm, day 0): 0%
- % adults ([1]; 800 ppm, day 2): 0%
- % dead larvae ([1]; 800 ppm, day 2): 95 a %
- % pupa ([1]; 800 ppm, day 2): 0%
- % adults ([1]; 800 ppm, day 4): 0%
- % dead larvae ([1]; 800 ppm, day 4): 95 a %
- % pupa ([1]; 800 ppm, day 4): 1.75 c %
- % adults ([1]; 800 ppm, day 9): 0 d %
- % dead larvae ([1]; 800 ppm, day 9): 93.75 a %
- % pupa ([1]; 800 ppm, day 9): 0 b %
- % adults ([1]; 800 ppm, day 11): 5 c %
- % dead larvae ([1]; 800 ppm, day 11): 94.25 a %
- % pupa ([1]; 800 ppm, day 11): 0%
- % adults ([1]; 1000 ppm, day 0): 0%
- % dead larvae ([1]; 1000 ppm, day 0): 0%
- % pupa ([1]; 1000 ppm, day 0): 0%
- % adults ([1]; 1000 ppm, day 2): 0%
- % dead larvae ([1]; 1000 ppm, day 2): 90 a %
- % pupa ([1]; 1000 ppm, day 2): 0%
- % adults ([1]; 1000 ppm, day 4): 0%
- % dead larvae ([1]; 1000 ppm, day 4): 94 a %
- % pupa ([1]; 1000 ppm, day 4): 3.75 c %
- % adults ([1]; 1000 ppm, day 9): 3.75 d %
- % dead larvae ([1]; 1000 ppm, day 9): 93.75 a %
- % pupa ([1]; 1000 ppm, day 9): 0 b %
- % adults ([1]; 1000 ppm, day 11): 3.75 c %
- % dead larvae ([1]; 1000 ppm, day 11): 96.25 a %
- % pupa ([1]; 1000 ppm, day 11): 0%
- % Growth inhibition ([2]; 0.1% w/v, 24 h): 4.29 ± 1.50 d %
- % Growth inhibition ([2]; 0.1% w/v, 48 h): 1.00 ± 0.01 e %
- % Growth inhibition ([2]; 0.5% w/v, 24 h): 13.96 ± 3.21 d %
- % Growth inhibition ([2]; 0.5% w/v, 48 h): 5.35 ± 1.32 e %
- % Growth inhibition ([2]; 1.0% w/v, 24 h): 66.39 ± 3.52 c %
- % Growth inhibition ([2]; 1.0% w/v, 48 h): 26.01 ± 2.95 c %
- % Growth inhibition ([2]; 2.0% w/v, 24 h): 81.96 ± 1.30 b %
- % Growth inhibition ([2]; 2.0% w/v, 48 h): 70.87 ± 2.57 b %
- % Growth inhibition ([2]; 4.0% w/v, 24 h): 82.47 ± 1.30 b %
- % Growth inhibition ([2]; 4.0% w/v, 48 h): 80.01 ± 0.42 b %
- growth inhibition ([3]; 1.0% (w/v)): 33.3%
- concentration up to which bacterial growth was increased ([3]; series 0.01-1.0% w/v): 0.5 % (w/v)

Compound: O=C(O)CCCc1c[nH]c2ccccc12 [IBA, indole-3-butyric acid]
- Average root length [4]: 10.1 ± 0.4^cd mm
- Number of roots per cutting [4]: 28.3 ± 1.3^c

Compound: [Cl-].[Na+] [NaCl]
- Foliage (14 days) ([5]; 75 mM): aa
- Germination (4 days) ([5]; 75 mM): ++
- Root ([5]; 75 mM): bbb
- Foliage (14 days) ([5]; 150 mM): a
- Germination (4 days) ([5]; 150 mM): +
- Root ([5]; 150 mM): bb

Compound: O=C1O[C@H]([C@@H](O)CO)C(O)=C1O [Vitamin C, ascorbic acid]
- Vitamin C level in skin ([6]; 30 minutes incubation): 259 ± 109 ng/cm^2 skin surface area
- Vitamin C level in skin ([6]; 60 minutes incubation): 326 ± 131 ng/cm^2 skin surface area

Compound: Triton X-100
- Factor increase (times) of penetration rate vs DDW [7]: 18.6 times
- Penetration rate of 2,4-D (^14C) [7]: 11.00 × 10^−5 a h^−1
- Factor increase (times) of penetration rate vs DDW ([7]; listed as Triton): 19.1 times
- Penetration rate of 2,4-D (^14C) ([7]; listed as Triton): 0.00011 h⁻¹
